What was measured:
[1] = Stented artery sirolimus concentration (Example 34); type: in vivo, porcine; details: for Pharmaceutical agent released from the coated stent recovered in the analyzed arterial tissue: based on 135 micrograms on the original stent at time 0
Experimental: (§1) Pharmacokinetic studies were performed on coated stents prepared and implanted as noted in Example 32. […] The coating encapsuled each of the stents.
(§2) Complete balloon deflation was verified with fluoroscopy.
(§3) Subjects were euthanized at the testing time points, and the tissue adjacent the stent (for non-limiting example, tissue surrounding the stent—referred to generally as arterial tissue) was extracted for analysis of the amount of pharmaceutical agent therein. Stents were also analyzed for the amount of pharmaceutical agent remaining on the coated stent at each time point. Testing methods as noted elsewhere herein were used to determine the amount of pharmaceutical agent remaining on the stent or in the tissue, and/or are methods that would be known to one of skill in the art.

[2] = Sirolimus remaining on and released from explanted stents (Example 34); type: in vivo, porcine; details: for Stent-associated sirolimus, Drug Released, Mean: calculated from Day 0 baseline measurement
Experimental: as §1, §2, §3

[3] = Whole blood rapamycin concentration after coated stent implantation, LC-MS/MS (Example 32); details: every time point 5 minutes to day 180, every subject; one coated stent (135 micrograms sirolimus) per porcine subject
Experimental: Blood serum levels of porcine subjects having coated stents implanted were tested at multiple time points. The coated stents implanted were prepared as follows: coated stents for the study comprise a coating that was deposited on the stent by deposition of rapamycin in dry powder form by RESS methods and equipment described herein and deposition of polymer particles by RESS methods and equipment described herein. A PDPDP (Polymer, sinter, Drug, Polymer, sinter, Drug, Polymer, sinter) coating sequence was used wherein the polymer was 50:50 PLGA, and the drug was rapamycin. The sinter step was performed at 100° C./150 psi/10 min after each “P” (or polymer) layer. […] The coating was about 5-15 micrometers thick on each stent, and comprised a thicker coating on the abluminal surface (coating bias). […]
Multiple batches of coated stents were created, implanted in the porcine subjects, one coated stent per subject, and each subject's blood serum levels were tested at multiple time points. […] The balloon was then inflated at a steady rate to a pressure sufficient to target a visually assessed balloon-artery ratio of 1.1:1-1.2:1. Confirmation of this balloon-artery ratio was made when the angiographic images were quantitatively assessed. […]
The whole blood sample was tested for rapamycin concentration using LC-MS/MS. Samples were quantified for rapamycin using ascomycin as the internal standard. […]

[4] = Day 60, porcine coronary artery
[5] = Day 90, porcine coronary artery

Pharmaceutical agent released from the coated stent recovered in the analyzed arterial tissue ([1]; at day 30): about 60%
Pharmaceutical agent released from the coated stent recovered in the analyzed arterial tissue ([1]; between days 3 and 60): about 40%
concentration at 1 day ([1]; pig, stented arterial tissue, other: coated stent implanted in coronary artery, 135 micrograms per stent, day 1, porcine, coated stent 135 micrograms sirolimus, read-out: Stented artery sirolimus concentration (tissue within stented segments)): 19600 ng/g
concentration at 3 day ([1]; pig, stented arterial tissue, other: coated stent implanted in coronary artery, 135 micrograms per stent, day 3, porcine, coated stent 135 micrograms sirolimus, read-out: Stented artery sirolimus concentration (tissue within stented segments)): 21400 ng/g
concentration at 7 day ([1]; pig, stented arterial tissue, other: coated stent implanted in coronary artery, 135 micrograms per stent, day 7, porcine, coated stent 135 micrograms sirolimus, read-out: Stented artery sirolimus concentration (tissue within stented segments)): 42200 ng/g
concentration at 14 day ([1]; pig, stented arterial tissue, other: coated stent implanted in coronary artery, 135 micrograms per stent, day 14, porcine, coated stent 135 micrograms sirolimus, read-out: Stented artery sirolimus concentration (tissue within stented segments)): 55900 ng/g
concentration at 21 day ([1]; pig, stented arterial tissue, other: coated stent implanted in coronary artery, 135 micrograms per stent, day 21, porcine, coated stent 135 micrograms sirolimus, read-out: Stented artery sirolimus concentration (tissue within stented segments)): 173000 ng/g
concentration at 30 day ([1]; pig, stented arterial tissue, other: coated stent implanted in coronary artery, 135 micrograms per stent, day 30, porcine, coated stent 135 micrograms sirolimus, read-out: Stented artery sirolimus concentration (tissue within stented segments)): 565000 ng/g
concentration at 45 day ([1]; pig, stented arterial tissue, other: coated stent implanted in coronary artery, 135 micrograms per stent, day 45, porcine, coated stent 135 micrograms sirolimus, read-out: Stented artery sirolimus concentration (tissue within stented segments)): 582000 ng/g
concentration at 60 day ([1]; pig, stented arterial tissue, other: coated stent implanted in coronary artery, 135 micrograms per stent, day 60, porcine, coated stent 135 micrograms sirolimus, read-out: Stented artery sirolimus concentration (tissue within stented segments)): 532000 ng/g
concentration at 90 day ([1]; pig, stented arterial tissue, other: coated stent implanted in coronary artery, 135 micrograms per stent, day 90, porcine, coated stent 135 micrograms sirolimus, read-out: Stented artery sirolimus concentration (tissue within stented segments)): 251000 ng/g
Stent-associated sirolimus, Drug Released, Mean ([2]; Day 0 baseline): 0 µg
Stent-associated sirolimus, Drug Remaining, Mean ([2]; Day 0 baseline, coated stent (PDPDP, 50:50 PLGA, 135 micrograms sirolimus)): 137.00 µg
Stent-associated sirolimus, Drug Remaining, Mean ([2]; Day 1, coated stent (PDPDP, 50:50 PLGA, 135 micrograms sirolimus) in porcine coronary artery): 137.00 µg
Stent-associated sirolimus, Drug Released, Mean ([2]; Day 1, porcine coronary artery): 1.67 µg
Stent-associated sirolimus, Drug Remaining, Mean ([2]; Day 3, coated stent (PDPDP, 50:50 PLGA, 135 micrograms sirolimus) in porcine coronary artery): 135.83 µg
Stent-associated sirolimus, Drug Released, Mean ([2]; Day 3, porcine coronary artery): 2.83 µg
Stent-associated sirolimus, Drug Remaining, Mean ([2]; Day 7, coated stent (PDPDP, 50:50 PLGA, 135 micrograms sirolimus) in porcine coronary artery): 127.83 µg
Stent-associated sirolimus, Drug Released, Mean ([2]; Day 7, porcine coronary artery): 9.17 µg
Stent-associated sirolimus, Drug Remaining, Mean ([2]; Day 14, coated stent (PDPDP, 50:50 PLGA, 135 micrograms sirolimus) in porcine coronary artery): 119.67 µg
Stent-associated sirolimus, Drug Released, Mean ([2]; Day 14, porcine coronary artery): 17.33 µg
Stent-associated sirolimus, Drug Remaining, Mean ([2]; Day 21, coated stent (PDPDP, 50:50 PLGA, 135 micrograms sirolimus) in porcine coronary artery): 103.68 µg
Stent-associated sirolimus, Drug Released, Mean ([2]; Day 21, porcine coronary artery): 33.32 µg
Stent-associated sirolimus, Drug Remaining, Mean ([2]; Day 30, coated stent (PDPDP, 50:50 PLGA, 135 micrograms sirolimus) in porcine coronary artery): 65.25 µg
Stent-associated sirolimus, Drug Released, Mean ([2]; Day 30, porcine coronary artery): 71.75 µg
Stent-associated sirolimus, Drug Remaining, Mean ([2]; Day 45, coated stent (PDPDP, 50:50 PLGA, 135 micrograms sirolimus) in porcine coronary artery): 3.89 µg
Stent-associated sirolimus, Drug Released, Mean ([2]; Day 45, porcine coronary artery): 133.12 µg
Stent-associated sirolimus, Drug Remaining, Mean ([2]; Day 60, coated stent (PDPDP, 50:50 PLGA, 135 micrograms sirolimus) in porcine coronary artery): 1.59 µg
Average incremental stent sirolimus elution (loss) rate [2, 4]: 0.15 ± 0.04 µg/day
Stent-associated sirolimus, Drug Released, Mean [2, 4]: 135.41 µg
Stent-associated sirolimus, Drug Remaining, Mean ([2]; Day 90, coated stent (PDPDP, 50:50 PLGA, 135 micrograms sirolimus) in porcine coronary artery): 0.11 µg
Average incremental stent sirolimus elution (loss) rate [2, 5]: 0.05 ± 0.00 µg/day
Stent-associated sirolimus, Drug Released, Mean [2, 5]: 136.89 µg
Average incremental stent sirolimus elution (loss) rate ([2]; peak around day 30, porcine coronary artery): 4.27 ± 1.69 µg/day
Concentration of rapamycin in whole blood (below quantifiable limit) [3]: < 0.100 ng/mL
SMILES: CO[C@H]1C[C@@H]2CC[C@@H](C)[C@@](O)(O2)C(=O)C(=O)N2CCCC[C@H]2C(=O)O[C@H]([C@H](C)C[C@@H]2CC[C@@H](O)[C@H](OC)C2)CC(=O)[C@H](C)/C=C(\C)[C@@H](O)[C@@H](OC)C(=O)[C@H](C)C[C@H](C)/C=C/C=C/C=C/1C [rapamycin]

Reference: US20110257732A1, “STENTS HAVING CONTROLLED ELUTION” (Micell Technologies, Inc., priority 2010, published 2011)
